What was measured:
[1] = tested on: three-dimensional culture skin (Kurabo; EPI-200X); assay: Nicotinamide metabolites on the epidermis surface of cultured skin after adding cortisol to the culture solution; format: cell-based; conditions: glucocorticoid (cortisol) 50 nM or 500 nM in culture solution, sample collected from epidermis side after 1 hour
Experimental: Assessment was made as to the ability of a cultured skin to secrete nicotinamide metabolites on the horny layer of epidermis surface in response to cortisol or glucose. A three-dimensional culture skin (Kurabo; EPI-200X) was cultured with its dermis side in contact with the culture solution. Glucocorticoid (cortisol) was added to the culture solution to make the final concentration 50 nM or 500 nM. After 1 hour, 150 μL of PBS was contacted to the epidermis side, and the sample was collected. The amounts of NAD+, NADH, NADP+, and NADPH in the sample were then measured using commercially available colorimetric analysis kits (Amplite Colorimetric NAD/NADH Assay Kit, Amplite Colorimetric NADP/NADPH Assay Kit; ABD Bioquest Inc.).

[2] = intake of alcohol while eating vs no alcohol; FIG. 10
Experimental: The tip of index finger was gently wiped with a paper towel soaked with pure water. The bottom end of a microtube containing 50 μL of pure water was held with the thumb, with the upper opening of the microtube in contact with the tip of the index finger (see FIG. 1A). With the microtube held with the index finger and the thumb, the microtube was inverted to contact the pure water to the skin surface of the index finger for 1 minute.
Eleven subjects were allowed to eat the same food during the time period of from 12:00 to 13:00, and the epidermal fluid was collected at 12:00, 13:00, 14:00, 15:00, and 16:00.

Row | SMILES | NAD+/NADH ratio ([1]; FIG. 12A) | NADP+/NADPH ratio ([1]; FIG. 12B) | transient increase in NAD+/NADH ratio in epidermal fluid [2]
1 | C[C@]12CCC(=O)C=C1CC[C@@H]1[C@@H]2[C@@H](O)C[C@@]2(C)[C@H]1CC[C@]2(O)C(=O)CO [glucocorticoid, cortisol] | increased concentration dependently | no change | –
2 | CCO [alcohol] | – | – | more enhanced
